# Measurements as given in patent publication US7579356B2, “Thia-tetraazaacenaphthylene kinase inhibitors” (Janssen Pharmaceutica NV, priority 2005, dated 2009).
# How the values were obtained:
# Assay type in all cases: biochemical
# EGFR = target: T1, EGFR (Homo sapiens, UniProt P00533); test: EGFR Kinase Assay; conditions: for IC50: GST-EGFR, ATP 5 μM; for inhibition at 2 µM: test concentration of 2 μM, compounds without an IC50, read-out: EGFR inhibition in percent
# T1 construct: The intracellular portion of EGFR started at nucleotide 2189 (corresponding to amino acid 667) and ended at the termination codon; made in house; host or cells: Sf9 insect cells (baculovirus)
# Outline: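 GST-fused human EGFR intracellular domain (from aa 667), Sf9-expressed, phosphorylated biotinylated polyGluTyr with 5 μM ATP plus γ-33P ATP in Tris pH 8.0, MgCl2, vanadate, 1 mM DTT, 1 h at 30 °C. Streptavidin Flashplate scintillation read; triplicate 16-point half-log series from 200 uM; IC50 from % inhibition vs log concentration, else % inhibition at 2 μM.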
# HER-2 = target: T2, HER-2 (Homo sapiens, UniProt P04626); test: HER-2 Kinase Assay; conditions: for inhibition at 1 µM: test concentration of 1 μM; for IC50: value in parentheses
# T2 construct: His6 with thrombin site (N); purchased Proqinase (Freiburg, Germany)
# Outline: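 GST/HIS6-tagged HER-2 aa 679–1255 kinase with biotinylated polyGluTyr (1.5 ng/μL), 1 μM ATP plus γ-33P-ATP, Mg2+/Mn2+, DTT, Hepes pH 7.5; 1 h at 30 °C. Substrate phosphorylation captured on streptavidin scintillation plates after EDTA/PBS washes; values are % inhibition at 1 μM or IC50.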
# c-Src kinase (human) = target: T3, c-Src kinase (human) (Homo sapiens, UniProt P12931); test: c-Src Kinase Assay; conditions: test concentration of 2 μM; multiple values are separate assay results
# T3 construct: purchased Upstate Biotechnology, Lake Placid, N.Y
# Outline: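 Inhibition was read as 33P incorporation, counted on P30 filtermats, after a 40 min, 30° C reaction. Human c-Src acted on 100 μM Cdc2 peptide with 5 μM ATP (final), pH 7.0 MOPS/MgCl2. Values are percent inhibition at 2 μM compound, or IC50 where determined.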
# Lyn kinase (human) = target: T4, Lyn kinase (human) (Homo sapiens, UniProt P07948); test: Lyn Kinase Assay; conditions: test concentration of 2 μM
# T4 construct: purchased Upstate Biotechnology, Lake Placid, N.Y
# Outline: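 Radiometric filter-binding assay with recombinant human Lyn, poly(Glu,Tyr) substrate (0.1 mg/mL final), 5 μM ATP plus γ-33P-ATP in MOPS pH 7.5/Mg acetate buffer; 40 min at 30 °C, stopped with phosphoric acid, counted by scintillation. Reported as percent inhibition at 2 μM, with IC50 (μM) where determined.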
# T1 sequence (P00533 669-1210 limits assumed): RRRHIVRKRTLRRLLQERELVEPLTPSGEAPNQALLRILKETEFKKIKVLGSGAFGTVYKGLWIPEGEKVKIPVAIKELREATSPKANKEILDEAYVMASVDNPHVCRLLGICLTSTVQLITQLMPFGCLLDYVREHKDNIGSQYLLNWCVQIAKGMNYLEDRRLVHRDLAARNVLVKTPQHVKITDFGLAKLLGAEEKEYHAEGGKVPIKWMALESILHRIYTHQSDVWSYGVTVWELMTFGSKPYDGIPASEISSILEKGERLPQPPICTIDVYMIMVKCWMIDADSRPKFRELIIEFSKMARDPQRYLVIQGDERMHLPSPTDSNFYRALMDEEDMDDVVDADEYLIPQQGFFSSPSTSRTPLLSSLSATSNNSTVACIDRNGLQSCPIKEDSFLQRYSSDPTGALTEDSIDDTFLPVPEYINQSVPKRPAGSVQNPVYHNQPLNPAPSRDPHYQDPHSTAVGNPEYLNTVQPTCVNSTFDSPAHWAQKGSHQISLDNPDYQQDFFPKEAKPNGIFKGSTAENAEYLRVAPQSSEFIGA
# T3 sequence (P12931 whole entry): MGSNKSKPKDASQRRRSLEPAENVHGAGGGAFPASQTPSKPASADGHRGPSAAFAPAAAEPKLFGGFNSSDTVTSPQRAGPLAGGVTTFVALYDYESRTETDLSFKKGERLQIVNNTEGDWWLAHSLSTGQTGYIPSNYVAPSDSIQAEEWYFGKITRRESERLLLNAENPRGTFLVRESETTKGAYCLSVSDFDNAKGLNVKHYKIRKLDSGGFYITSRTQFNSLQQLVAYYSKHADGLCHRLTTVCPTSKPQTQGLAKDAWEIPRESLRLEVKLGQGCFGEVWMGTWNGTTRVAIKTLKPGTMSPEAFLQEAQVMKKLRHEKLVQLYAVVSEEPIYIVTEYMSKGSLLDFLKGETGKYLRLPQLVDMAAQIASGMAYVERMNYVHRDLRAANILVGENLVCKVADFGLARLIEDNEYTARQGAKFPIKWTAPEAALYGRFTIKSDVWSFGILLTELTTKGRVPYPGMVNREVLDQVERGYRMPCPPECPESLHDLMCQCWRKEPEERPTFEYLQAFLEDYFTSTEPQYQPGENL
# T2 sequence (P04626 679-1255): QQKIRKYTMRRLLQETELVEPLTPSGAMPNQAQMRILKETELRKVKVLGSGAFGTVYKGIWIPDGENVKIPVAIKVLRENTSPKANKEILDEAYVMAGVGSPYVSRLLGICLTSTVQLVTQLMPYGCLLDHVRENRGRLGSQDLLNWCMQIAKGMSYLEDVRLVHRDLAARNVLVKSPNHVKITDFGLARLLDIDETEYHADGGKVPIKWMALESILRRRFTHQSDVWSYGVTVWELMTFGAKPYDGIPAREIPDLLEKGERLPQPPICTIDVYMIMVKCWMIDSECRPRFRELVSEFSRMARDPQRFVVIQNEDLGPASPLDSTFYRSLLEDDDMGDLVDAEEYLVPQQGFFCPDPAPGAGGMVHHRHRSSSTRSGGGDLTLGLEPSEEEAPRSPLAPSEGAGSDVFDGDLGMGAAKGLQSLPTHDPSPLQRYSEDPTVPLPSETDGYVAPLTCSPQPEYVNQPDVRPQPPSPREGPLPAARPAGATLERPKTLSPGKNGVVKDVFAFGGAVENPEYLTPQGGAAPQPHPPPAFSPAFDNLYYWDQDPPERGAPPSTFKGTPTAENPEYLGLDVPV
# T4 sequence (P07948 whole entry): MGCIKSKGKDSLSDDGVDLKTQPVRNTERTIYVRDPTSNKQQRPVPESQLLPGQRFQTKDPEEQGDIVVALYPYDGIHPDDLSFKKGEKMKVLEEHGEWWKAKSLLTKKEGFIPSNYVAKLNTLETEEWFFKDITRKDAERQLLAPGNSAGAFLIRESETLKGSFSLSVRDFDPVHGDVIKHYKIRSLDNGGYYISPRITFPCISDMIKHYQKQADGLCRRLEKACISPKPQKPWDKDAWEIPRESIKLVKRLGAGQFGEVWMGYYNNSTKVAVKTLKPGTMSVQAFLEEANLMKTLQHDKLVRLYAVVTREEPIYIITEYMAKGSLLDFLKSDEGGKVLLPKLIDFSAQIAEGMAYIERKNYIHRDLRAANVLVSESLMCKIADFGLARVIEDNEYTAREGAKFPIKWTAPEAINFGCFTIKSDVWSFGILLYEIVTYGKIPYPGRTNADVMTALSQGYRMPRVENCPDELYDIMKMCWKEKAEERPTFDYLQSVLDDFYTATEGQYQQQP
SMILES,IC50 (EGFR),inhibition at 1 µM (HER-2),IC50 (HER-2),inhibition at 2 µM (c-Src kinase (human)),inhibition at 2 µM (Lyn kinase (human)),inhibition at 2 µM (EGFR)
"O=C(NCCCO)c1sc2ncnc3c2c1NC(=O)N3c1ccc(Oc2ccccc2)c(Cl)c1 [Cpd 137, 5-(3-chloro-4-phenoxy-phenyl)-4-oxo-4,5-dihydro-3H-1-thia-3,5,6,8-tetraaza-acenaphthylene-2-carboxylic acid (3-hydroxy-propyl)-amide]",30 nM,48%,1630 nM,26%,43%,–
"O=C(Nc1ccc(CN2CCOCC2)cc1)c1sc2ncnc3c2c1NC(=O)N3c1ccc(Oc2ccccc2)c(Cl)c1 [Cpd 138, 5-(3-chloro-4-phenoxy-phenyl)-4-oxo-4,5-dihydro-3H-1-thia-3,5,6,8-tetraaza-acenaphthylene-2-carboxylic acid (4-morpholin-4-ylmethyl-phenyl)-amide]",59 nM,–,178 nM,39%,50%,–
"O=C(Nc1ccc(CN2CCCCC2)cc1)c1sc2ncnc3c2c1NC(=O)N3c1ccc(-c2ccc(Cl)cc2)cc1 [Cpd 139, 5-(4′-chloro-biphenyl-4-yl)-4-oxo-4,5-dihydro-3H-1-thia-3,5,6,8-tetraaza-acenaphthylene-2-carboxylic acid (4-piperidin-1-ylmethyl-phenyl)-amide]",–,–,> 100000 nM,28%,34%,18%
"O=C(Nc1ccc(CN2CCOCC2)cc1)c1sc2ncnc3c2c1NC(=O)N3c1ccc(-c2ccc(Cl)cc2)cc1 [Cpd 140, 5-(4′-chloro-biphenyl-4-yl)-4-oxo-4,5-dihydro-3H-1-thia-3,5,6,8-tetraaza-acenaphthylene-2-carboxylic acid (4-morpholin-4-ylmethyl-phenyl)-amide]",–,–,> 100000 nM,25%,43%,20%
"NCCCNC(=O)c1sc2ncnc3c2c1NC(=O)N3c1ccc2c(ccn2Cc2cccc(F)c2)c1 [Cpd 142, 5-[1-(3-fluoro-benzyl)-1H-indol-5-yl]-4-oxo-4,5-dihydro-3H-1-thia-3,5,6,8-tetraaza-acenaphthylene-2-carboxylic acid (3-amino-propyl)-amide]",11 nM,–,381 nM,10%,39%,–
"COc1cc(NC(=O)c2sc3ncnc4c3c2NC(=O)N4c2ccc(F)cc2Cl)ccc1OCCN1CCCCC1 [Cpd 144, 5-(2-chloro-4-fluoro-phenyl)-4-oxo-4,5-dihydro-3H-1-thia-3,5,6,8-tetraaza-acenaphthylene-2-carboxylic acid [3-methoxy-4-(2-piperidin-1-yl-ethoxy)-phenyl]-amide]",330 nM,18%,–,67%,84%,–
"O=C(Nc1ccc(CN2CCCCC2)cc1)c1sc2ncnc3c2c1NC(=O)N3c1ccc(F)cc1Cl [Cpd 145, 5-(2-chloro-4-fluoro-phenyl)-4-oxo-4,5-dihydro-3H-1-thia-3,5,6,8-tetraaza-acenaphthylene-2-carboxylic acid (4-piperidin-1-ylmethyl-phenyl)-amide]",166 nM,54%,4230 nM,50%,83%,–
"Cc1cccc(Cl)c1N1C(=O)Nc2c(C(=O)Nc3ccc(CN4CCOCC4)cc3)sc3ncnc1c23 [Cpd 146, 5-(2-chloro-6-methyl-phenyl)-4-oxo-4,5-dihydro-3H-1-thia-3,5,6,8-tetraaza-acenaphthylene-2-carboxylic acid (4-morpholin-4-ylmethyl-phenyl)-amide]",–,21%,–,45%,65%,37%

# Results, then the compound that gave them:
IC50 (EGFR),inhibition at 1 µM (HER-2),IC50 (HER-2),inhibition at 2 µM (c-Src kinase (human)),inhibition at 2 µM (Lyn kinase (human)),inhibition at 2 µM (EGFR),SMILES
–,17%,–,61%,76%,43%,"Cc1cccc(Cl)c1N1C(=O)Nc2c(C(=O)Nc3ccc(CN4CCCCC4)cc3)sc3ncnc1c23 [Cpd 147, 5-(2-chloro-6-methyl-phenyl)-4-oxo-4,5-dihydro-3H-1-thia-3,5,6,8-tetraaza-acenaphthylene-2-carboxylic acid (4-piperidin-1-ylmethyl-phenyl)-amide]"
–,30%,–,53%,59%,38%,"Cc1cccc(Cl)c1N1C(=O)Nc2c(C(=O)Nc3ccc(C(O)CN4CCOCC4)cc3)sc3ncnc1c23 (stereo not drawn) [Cpd 148, 5-(2-chloro-6-methyl-phenyl)-4-oxo-4,5-dihydro-3H-1-thia-3,5,6,8-tetraaza-acenaphthylene-2-carboxylic acid [4-(1-hydroxy-2-morpholin-4-yl-ethyl)-phenyl]-amide]"
187 nM,53%,2540 nM,54%,72%,–,"O=C(Nc1ccc(CN2CCOCC2)cc1)c1sc2ncnc3c2c1NC(=O)N3c1ccccc1Cl [Cpd 149, 5-(2-chloro-phenyl)-4-oxo-4,5-dihydro-3H-1-thia-3,5,6,8-tetraaza-acenaphthylene-2-carboxylic acid (4-morpholin-4-ylmethyl-phenyl)-amide]"
170 nM,18%,–,52%,77%,–,"O=C(Nc1ccc(CN2CCCCC2)cc1)c1sc2ncnc3c2c1NC(=O)N3c1ccccc1Cl [Cpd 150, 5-(2-chloro-phenyl)-4-oxo-4,5-dihydro-3H-1-thia-3,5,6,8-tetraaza-acenaphthylene-2-carboxylic acid (4-piperidin-1-ylmethyl-phenyl)-amide]"
603 nM,29%,–,53%,61%,–,"CN1CCN(Cc2ccc(NC(=O)c3sc4ncnc5c4c3NC(=O)N5c3ccccc3Cl)cc2)CC1 [Cpd 151, 5-(2-chloro-phenyl)-4-oxo-4,5-dihydro-3H-1-thia-3,5,6,8-tetraaza-acenaphthylene-2-carboxylic acid [4-(4-methyl-piperazin-1-ylmethyl)-phenyl]-amide]"
333 nM,–,3720 nM,-6%,7%,–,"O=C1Nc2csc3ncnc(c23)N1c1ccc2c(ccn2Cc2cccc(F)c2)c1 [Cpd 152, 5-[1-(3-fluoro-benzyl)-1H-indol-5-yl]-3H,5H-1-thia-3,5,6,8-tetraaza-acenaphthylen-4-one]"
159 nM,70%,294 nM,16%,-4%,–,"O=C(Nc1ccc(CN2CCOCC2)cc1)c1sc2ncnc3c2c1NC(=O)N3c1ccc(F)c(Br)c1 [Cpd 153, 5-(3-bromo-4-fluoro-phenyl)-4-oxo-4,5-dihydro-3H-1-thia-3,5,6,8-tetraaza-acenaphthylene-2-carboxylic acid (4-morpholin-4-ylmethyl-phenyl)-amide]"
592 nM,12%,> 10000 nM,8%,7%,–,"O=C(NCCCO)c1sc2ncnc3c2c1NC(=O)N3c1ccc(F)c(Br)c1 [Cpd 154, 5-(3-bromo-4-fluoro-phenyl)-4-oxo-4,5-dihydro-3H-1-thia-3,5,6,8-tetraaza-acenaphthylene-2-carboxylic acid (3-hydroxy-propyl)-amide]"
